Laboratory results reported in article PMC12670405, “Second-Generation AURKA-Targeting PROTACs: Structural Optimization toward in Vivo Degradation in Neuroblastoma” (Journal of Medicinal Chemistry, 2025).
Like-named read-outs stand apart in the source and are kept apart here.

Tests used:
[1] = target: T1, AURKA (Homo sapiens, UniProt O14965); assay: AURKA degradation, Simple Western; assay type: cell-based; set-up: Representative Western blot showing levels of endogenous proteins MDR1, MYCN, AURKA, and CRBN in untreated cell lines; endogenous in cells; host or cells: NGP, IMR-32, SJNB-8, SK-N-BE(2)-C, SK-N-SH, SK-N-AS, SJNB-1, RPE, HEK293T; settings: for pDC50: AURKA degradation; for DC50: read-out: AURKA DC50;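 on AURKA Degradation 24h @1000nM: measured in NGP neuroblastoma cells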;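 on AURKA Degradation 24h @100nM: measured in NGP neuroblastoma cells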
T1 sequence (O14965 1-403): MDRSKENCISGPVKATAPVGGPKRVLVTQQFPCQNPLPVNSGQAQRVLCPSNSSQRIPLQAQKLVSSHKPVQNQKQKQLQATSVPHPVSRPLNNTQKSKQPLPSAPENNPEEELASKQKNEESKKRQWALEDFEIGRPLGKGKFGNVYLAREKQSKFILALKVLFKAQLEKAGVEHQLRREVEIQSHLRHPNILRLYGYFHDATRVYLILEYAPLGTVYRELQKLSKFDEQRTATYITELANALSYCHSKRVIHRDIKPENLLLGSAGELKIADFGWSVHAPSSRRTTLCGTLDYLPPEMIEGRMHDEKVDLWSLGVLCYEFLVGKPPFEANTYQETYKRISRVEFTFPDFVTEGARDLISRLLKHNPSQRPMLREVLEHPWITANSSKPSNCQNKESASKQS
Description: Cells were seeded in T-25 flasks at different densities ranging from 1 to 2 million cells per flask and allowed to adhere for 1–2 days. In experiments involving compound treatment, this was done by medium replacement containing the compound(s) of interest in their corresponding concentrations. In competition binding experiments, cells were first pretreated with an excess of MK-5108, thalidomide or MG-132 for 1 h by shaking gently at room temperature prior to addition of SK4454 or SK5527. All samples were normalized to contain the same percentage of DMSO as the negative DMSO controls. Cells were harvested on ice at their respective time points by scraping, washed with ice-cold PBS to collect remaining cells, and centrifuged (2500 rpm, 4 °C). A second washing and centrifugation step was performed prior to collection of the final cell pellets which were then snap-frozen in liquid nitrogen and kept frozen at −80 °C until further processing. Lysis of cell pellets occurred in cold RIPA buffer (0.5% w/v Sodium Deoxycholate, 150 mM NaCl, 50 mM TrisHCl pH 7.5, 0.1% w/v SDS, 1% w/v NP-40) supplemented with protease and phosphatase inhibitors (Roche, #11836145001, #04906845001) by rotating gently at 4 °C for 1h, followed by a centrifugation step for 10 min (10,000 rpm, 4 °C). The supernatant was collected and concentrations of the obtained protein lysates were measured using the Pierce BCA Protein Assay Kit (Thermo Fisher Scientific, #23227).
Simple Western analyses were performed with the Wes instrument (Bio-Techne) using the 12–230 kDa Wes Separation module and the EZ standard pack reagent 1 (Biotechne, #SM-W001, #PS-ST01EZ-8) following the manufacturer’s protocol. Protein lysates were loaded at 0.8 μg/μL under denaturing conditions (0.2 μg/μL for MYCN detection). Chemiluminescence peaks were generated by the Compass Software (Bio-Techne) and the area under the peaks calculated using the Gaussian fit method. Per lane, quantified data were always normalized to that of the loading control (Vinculin) prior to calculating fold changes relative to the negative DMSO control. Mean fold changes are calculated from 3 individual experiments. A list of the primary and secondary antibodies used can be found in the Supporting Information (Supplementary Table S7).
Graphs were generated using GraphPad Prism Software (version 10.1.2) or RStudio (R-4.3.2). All dose–response curves were computed on GraphPad Prism using the Variable Slope (four parameters) equation. Absolute half-maximal degradation (DC50), growth inhibitory (GI50) and enzymatic inhibitory (IC50) concentrations, as well as inhibition constants (Ki) were derived from dose–response curves via interpolation. Statistical tests were performed on GraphPad Prism and detailed in the figure legends. Unless otherwise stated, “n” in the figure legends indicates the number of independent experiments conducted at different times.

[2] = Plasma stability assay; assay type: in vitro ADME, CD-1 mouse; settings: for half-life at 1 μM: read-out: plasma t1/2
Description: (§1) Plasma and metabolic stability tests were performed by Eurofins Discovery. For the plasma stability assay, test compounds were incubated in CD-1 mouse plasma for 0, 0.5, 1, 1.5, and 2 h at 37 °C at a concentration of 1 μM. For the metabolic stability assay, test compounds were incubated at 37 °C in either (1) CD-1 mouse liver microsomes (MLM) (0.1 mg/mL) at a concentration of 0.1 μM for 0, 15, 30, 45, and 60 min or (2) CD-1 mouse hepatocytes (MH) (0.7 million viable cells/mL) at a concentration of 1 μM for 0, 0.5, 1, 1.5, and 2 h. At the respective time points, acetonitrile was added to the incubation mixture followed by centrifugation. Samples were analyzed by HPLC-MS/MS and peak areas were recorded for each analyte. Compound stability, expressed as the percentage of parent compound remaining, was calculated by comparing the peak area of the compound at each time point relative to that of the 0h time point. Percentage compound remaining is plotted as a function of time as a logarithmic curve. Half-life (t 1/2) is estimated from the slope of the initial linear range of the curve, assuming first-order kinetics. […] Both plasma and metabolic assay experiments were performed once with 2 replicate samples each.

[3] = Metabolic stability in mouse liver microsomes (MLM); assay type: in vitro ADME, CD-1 mouse; settings: CD-1
Description: as §1

[4] = Metabolic stability in mouse hepatocytes (MH); assay type: in vitro ADME, CD-1 mouse; settings: CD-1
Description: as §1

[5] = test system: NGP; assay: IncuCyte live-cell imaging, antiproliferative effect; assay type: cell-based; settings: Homo sapiens, 72 h
Text: Human neuroblastoma cell lines NGP, IMR-32, SJNB-8, SK-N-BE(2)-C, SJNB-1, SK-N-SH and SK-N-AS, as well as benign immortalized cell lines RPE and HEK293T were either bought commercially or obtained through research laboratories. […] Screening for mycoplasma contamination occurred routinely on the cells. Human neuroblastoma cell lines SH-SY5Y_shABCB1 & SH-SY5Y_shNTC were generated by transduction with pLKO.1-ABCB1_TRCN0000059683 shRNA (Sigma MISSION SHCLND) or pLKO.1-puro NT shRNA (Sigma MISSION SHC002) vectors respectively (Supplementary Table S6), packaged using Lenti-X293T (Clontech). Transduced cells were selected with 2 μg/mL puromycin. These cells were cultured in DMEM 4.5 g/L D-Glucose, L-Glutamine and 110 mg/L Sodium Pyruvate (Gibco, #11995065) supplemented with 10% fetal bovine serum, 1× Antibiotic-Antimycotic solution (Sigma-Aldrich, #A5955) and 1× MEM nonessential amino acids (Sigma-Aldrich, #M7145). Incubation of all cells occurred at 37 °C and 5% CO2.
Neuroblastoma cells were seeded in 384-well plates at different densities ranging from 1200 to 5000 cells/well and allowed to adhere overnight. RPE and HEK293T were seeded at 200 and 600 cells/well, respectively. Compound treatment was performed using the D300e Digital Dispenser (Tecan) in duplicate or triplicate and cell confluency was monitored over time using the IncuCyte Live-cell imaging system (Sartorius). […] Mean normalized confluences were calculated from 3 individual experiments.
All dose–response curves were computed on GraphPad Prism using the Variable Slope (four parameters) equation. Absolute half-maximal degradation (DC50), growth inhibitory (GI50) and enzymatic inhibitory (IC50) concentrations, as well as inhibition constants (Ki) were derived from dose–response curves via interpolation. Statistical tests were performed on GraphPad Prism and detailed in the figure legends. Unless otherwise stated, “n” in the figure legends indicates the number of independent experiments conducted at different times.

Row | AURKA Degradation 24h @100nM [1] | AURKA Degradation 24h @1000nM [1] | pDC50 [1] | DC50 [1] [nM] | half-life at 1 μM ([2]; CD-1, mouse, plasma) [h] | microsomal CLint at 0.1 μM [3] [µL/min/mg] | hepatocyte CLint at 1 μM [4] [µL/min/1e6 cells] | Dmax ([1]; NGP, 24 h treatment) [%] | half-life at 1 μM ([2]; CD-1 mouse plasma, 1 μM, 37 °C) [h] | plasma t1/2 ([2]; plasma) [h] | DC50 ([1]; NGP, 24 h treatment) [nM] | SMILES | GI50 ([5]; read-out: GI50 72h, 72h) [nM] | GI50 ([5]; read-out: pGI50 (converted)) [nM] | AURKA degradation activity (in words) ([1]; NGP, 24 h treatment)
1 | 80 | 78 | 8,52 | 3 | > 2 | 367 | 13 |  |  |  |  | O=C1CCN(c2ccc(C3CCN(C4CN(C(=O)[C@]5(Cc6cccc(Nc7nccs7)n6)CC[C@@H](Oc6cccc(Cl)c6F)CC5)C4)CC3)nc2)C(=O)N1 [PROTAC 28] | 48 | 47.9 | 
2 | 88 | 93 |  |  | > 2 | 1060 |  |  |  |  |  | O=C1CCN(c2ccc(N3CCN(CC4(F)CCN(C(=O)[C@]5(Cc6cccc(Nc7nccs7)n6)CC[C@@H](Oc6cccc(Cl)c6F)CC5)CC4)CC3)nc2)C(=O)N1 [PROTAC 27] | 46 | 46.8 | 
3 | 72 | 66 |  |  | > 2 | 1480 |  |  |  |  |  | O=C1CCC(N2C(=O)c3cccc(N4CCN(CCOCCOCCNC(=O)[C@]5(Cc6cccc(Nc7nccs7)n6)CC[C@@H](Oc6cccc(Cl)c6F)CC5)CC4)c3C2=O)C(=O)N1 (stereo partly shown) [PROTAC 1] | 63 | 63.1 | 
4 | 80 | 77 | 8,06 | 8.7 |  | 456 |  | 81 | 1.32 |  |  | O=C1CCC(N2C(=O)c3cccc(OCCOCCOCCN4CCN(C(=O)[C@]5(Cc6cccc(Nc7nccs7)n6)CC[C@@H](Oc6cccc(Cl)c6F)CC5)CC4)c3C2=O)C(=O)N1 (stereo partly shown) [PROTAC 3] | 42 | 41.7 | 
5 | 90 | 87 | 8,47 | 3.4 | > 2 | 426 | 13.6 |  |  |  |  | O=C1CCN(c2ccc(N3CCN(CC4CCN(C(=O)[C@]5(Cc6cccc(Nc7nccs7)n6)CC[C@@H](Oc6cccc(Cl)c6F)CC5)C4)CC3)nc2)C(=O)N1 (stereo partly shown) [PROTAC 25] | 33 | 32.4 | 
6 | 61 | 73 | 7,36 | 43.8 |  | 739 |  | 76 | > 2 | > 2 |  | O=C1CCC(Nc2ccc(N3CCN(C(=O)CNC(=O)[C@]4(Cc5cccc(Nc6nccs6)n5)CC[C@@H](Oc5cccc(Cl)c5F)CC4)CC3)cc2)C(=O)N1 (stereo partly shown) [PROTAC 14] | 46 | 45.7 | significantly stronger degradation activity
7 | 81 | 75 | 8,15 | 7 |  | 1080 |  | 81 | 1.18 |  |  | O=C1CCC(N2C(=O)c3ccc(OCCOCCNC(=O)[C@]4(Cc5cccc(Nc6nccs6)n5)CC[C@@H](Oc5cccc(Cl)c5F)CC4)cc3C2=O)C(=O)N1 (stereo partly shown) [SK3277, reference compound] | 52 | 52.5 | 
8 | 68 | 77 |  |  |  |  |  |  |  |  |  | O=C1CCC(N2C(=O)c3ccc(N4CCN(C(=O)COCCNC(=O)[C@]5(Cc6cccc(Nc7nccs7)n6)CC[C@@H](Oc6cccc(Cl)c6F)CC5)CC4)cc3C2=O)C(=O)N1 (stereo partly shown) [PROTAC 7] | 112 | 112 | 
9 | 85 | 93 | 8,32 | 4.8 |  | 656 |  | 97 | > 2 | > 2 | 5 | O=C1CCC(N2C(=O)c3ccc(N4CCN(CCNC(=O)[C@]5(Cc6cccc(Nc7nccs7)n6)CC[C@@H](Oc6cccc(Cl)c6F)CC5)CC4)cc3C2=O)C(=O)N1 (stereo partly shown) [PROTAC 4] | 44 | 44.7 | 
10 | 38 | 55 |  |  |  |  |  |  |  |  |  | O=C1CCC(Nc2ccc(N3CCN(C(=O)COCCNC(=O)[C@]4(Cc5cccc(Nc6nccs6)n5)CC[C@@H](Oc5cccc(Cl)c5F)CC4)CC3)cc2)C(=O)N1 (stereo partly shown) [PROTAC 15] | 93 | 93.3 | only weak AURKA-degrading activity
11 | 78 | 80 | 8,31 | 4.9 |  |  |  |  |  |  |  | O=C1CCC(N2C(=O)c3ccc(OCCOCCN4CCN(C(=O)[C@]5(Cc6cccc(Nc7nccs7)n6)CC[C@@H](Oc6cccc(Cl)c6F)CC5)CC4)cc3C2=O)C(=O)N1 (stereo partly shown) [PROTAC 11] | 38 | 38 | 
